# Results from patent publication US20040266723A1, “Antiviral agents for treatment of Flaviviridae infections” (priority 2000, published 2004).
# Where two headings read alike, the source gives them in different places.
# Columns and labels:
# [1] = Cytotoxicity in HepG2 cells; format: cell-based; details: human
# Experimental: (§1) Cytotoxicity testing can be carried out according to standard methods. MDBK, PBM, HepG2, Huh7 and Vero cells were used. […]. After a three day-incubation, cell viability and mitochondrial activity are measured by adding the MTS-dye (Promega), followed by a 3 hours incubation. Afterwards the plates containing the dye are read at 490 nm. Each assay was done in triplicate. Such methodologies are well described and available from the manufacturer (Promega).
# [2] = Cytotoxicity in MDBK cells; format: cell-based
# Source text: as §1, with “After a three day-incubation, cell viability and mitochondrial activity are measured by adding the MTS-dye (Promega), followed by a 3 hours incubation.” left out
# human IMPDH = assay: IMPDH inhibition (Ki); format: biochemical
# BVDV [3] = assay: BVDV real time RT-PCR antiviral assay in MDBK cells; format: cell-based, Bovine viral diarrhea virus (BVDV), strain NADL; details: for max log reduction Viral Load / virus production / viral RNA versus negative control: MDBK cells; for Selectivity Index (24 hrs/24 hrs) CC50/EC90: MDBK CC50 24 hrs / antiviral EC90 24 hrs; for virus production / viral RNA versus negative control: MOI 0.02, 22 hours, real time RT-PCR
# Experimental: As one illustration of this method, in the case of BVDV in MDBK cells, in a first step, viral RNA is isolated from 140 μL of the cell culture supernatant by means of a commercially available column (Viral RNA extraction kit, QiaGen, CA). The viral RNA is then eluted from the column to yield a total volume of 60 μL, and subsequently amplified with a quantitative RT-PCR protocol using a suitable primer for the BVDV NADL strain. A quenched fluorescent probe molecule is hybridized to the BVDV DNA, which then undergoes exonucleolytic degradation resulting in a detectable fluorescent signal. Therefore, the RT-PCR amplified DNA was detected in real time by monitoring the presence of fluorescence signals. The TaqMan probe molecule (5′ 6-fam-[…]-tamara 3′ [Sequence ID No. 7] and primers (sense: 5′-[…]-3′ [Sequence ID No. 8]; and antisense: 5′-[…]-3′ [Sequence ID No. 9]) were designed with the aid of the Primer Express software (PE-Applied Biosystems) to be complementary to the BVDV NADL NS5B region. A total of 10 μL of RNA was analyzed in a 50 μL RT-PCR mixture. Reagents and conditions used in quantitative PCR were purchased from PE-Applied Biosystems. The standard curve that was created using the undiluted inoculum virus ranged from 6000 plaque forming units (PFU) to 0.6 PFU per RT-PCR mixture.
# Maldin-Darby bovine kidney (MDBK) cells were grown and maintained in a modified eagle medium (DMEM/F12; GibcoBRL), supplemented with 10% heat inactivated horse serum at 37° C. in a humidified, 5% CO2, incubator.
# Bovine viral diarrhea virus (BVDV), strain NADL, causes a cytopathogenic effect (CPE) after infection of these cells.
# Cells that were not treated with a test compound were considered a negative control, while ribavirin served as a positive control. Viral RNA was extracted and analyzed by real time RT-PCR.
# Controls were Ribavirin and the polyoxymetalate HPA-023 in these experiments.
# in vitro = format: cell-based
# Source text: as §1, with “After a three day-incubation, cell viability and mitochondrial activity are measured by adding the MTS-dye (Promega), followed by a 3 hours incubation.” left out
# [4] = Toxicity of C2-MAD in Balb/c mice (body weight); format: in vivo; details: Balb/c mice, 10, 30 and 60 mg/kg/day, ten day treatment, versus water
# Source text: The results of this screening are illustrated in FIG. 4.
# [5] = Cytotoxicity in CEM cells; details: human, CEM cells
# MDBK cells = assay: Cytotoxicity in MDBK cells; format: cell-based
# Source text: as §1, with “After a three day-incubation, cell viability and mitochondrial activity are measured by adding the MTS-dye (Promega), followed by a 3 hours incubation.” left out
# CEM = assay: Cytotoxicity in CEM cells; details: read-out: CEM 7 days CC50; 7 days
# PBMC = assay: in vitro; format: cell-based; details: 7 days
# Source text: as §1, with “After a three day-incubation, cell viability and mitochondrial activity are measured by adding the MTS-dye (Promega), followed by a 3 hours incubation.” left out
# [6] = renal transplanted patients, oral; cited from earlier work
# IMPDH = details: literature (WO 95/22538); cited from earlier work
# [7] = Cytotoxicity in Vero cells; format: cell-based; details: African green monkey
# Experimental: as §1
# BVDV [8] = assay: BVDV real time RT-PCR antiviral assay in MDBK cells; format: cell-based, Bovine viral diarrhea virus (BVDV), strain NADL; details: dose-response, 24 hours post-infection
# [9] = BVDV real time RT-PCR, after 22 hours, tested at 40 μM
# [10] = Bovine viral diarrhea virus isolates and strains, MDBK, 22 h
# [11] = Bovine viral diarrhea virus isolates and strains, MDBK, 24 h, read-out: Antiviral (24 hrs) EC90
# [12] = 7 days, read-out: PBMC 7 days CC50
# [13] = 24 hrs, read-out: MDBK (24 hrs) CC50
# [14] = Table 2, 3 days, read-out: MDBK (3 Days) CC50
# [15] = BVDV, 24 hrs, read-out: Antiviral (24 hrs) EC90
structure (smiles),measurement,setting,value
N#Cc1cncc([C@@H]2O[C@H](CO)[C@@H](O)[C@H]2O)c1,melting point,,169 to 171 °C
NC(=O)c1cncc([C@H]2O[C@H](CO)[C@@H](O)[C@H]2O)c1,melting point,,210 to 212 °C
NC(=O)c1cccc(C2OC(CO)C(O)C2O)c1 (stereo not drawn) [Benzamide Riboside],CC50 at 3 days,[1]; HepG2 cells,8 µM
same,CC50 at 24 h,"[2]; bovine, MDBK cells",13 µM
same,CC50 at 3 days,"[2]; bovine, MDBK cells, Table 1",4 µM
same,CC50 at 3 days,"[2]; bovine, MDBK cells, Table 2",3 µM
same,Ki,"human IMPDH; Table 2, read-out: IMPDH Ki",0.66 µM
same,max log reduction Viral Load,BVDV [3]; [9],>2 (40 μM) log
same,EC90,BVDV [3]; [10],3 µM
same,EC90,BVDV [3]; [11],3 µM
same,Selectivity Index (24 hrs/24 hrs) CC50/EC90,BVDV [3],4
same,CC50,in vitro,< 17 µM
COc1c(C)c2c(c(O)c1CCOP(=O)(O)CP(=O)(O)OC[C@H]1O[C@@H](n3cnc4c(N)ncnc43)C(O)[C@H]1O)C(=O)OC2 (stereo partly drawn) [C2-MAD],toxic effects: weight gain or loss (FIG. 4),[4],does not contribute to significant weight gain or loss
same,CC50 at 24 h,[2],> 100 µM
same,CC50 at 3 days,[2]; Table 1,50 µM
same,CC50 at 3 days,[2]; Table 2,9 µM
same,CC50 at 7 days,[5],17.7 µM
same,max log reduction Viral Load,BVDV [3]; [9],1.9 (40 μM) log
same,CC50 at 7 days,in vitro; [12],45.9 µM
"COc1c(C)c2c(c(O)c1CCO)C(=O)OC2 [C2-MPAlcohol, 6-(2-hydroxyethyl)-7-hydroxy-5-methoxy-4-methylphthalan-1-one]",CC50,MDBK cells; [13],> 100 µM
same,CC50,"MDBK cells; Table 1, 3 days, read-out: MDBK 3 days CC50",7 µM
same,CC50,MDBK cells; [14],7 µM
same,CC50,CEM,91 µM
same,max log reduction Viral Load,BVDV [3]; [9],1.96 (40 μM) log
same,EC90,"BVDV [3]; BVDV real time RT-PCR, after 22 hours, 1-log reduction in viral production, read-out: EC90",40 µM
same,EC90,BVDV [3]; [15],40 µM
same,CC50,PBMC,> 100 µM
COc1c(C)c2c(c(O)c1CC=O)C(=O)OC2 [C2-MPAld],CC50,MDBK cells,> 100 µM
same,EC90,BVDV [3]; [15],> 100 µM
same,virus production / viral RNA versus negative control,BVDV [3],non-active
COc1c(C)c2c(c(O)c1C/C=C(\C)C=O)C(=O)OC2 [C4-MPAld],CC50,MDBK cells,> 100 µM
same,EC90,BVDV [3]; [15],> 100 µM
same,virus production / viral RNA versus negative control,BVDV [3],non-active
COc1c(C)c2c(c(O)c1C/C=C(\C)CCCOP(=O)(O)CP(=O)(O)OC[C@H]1O[C@@H](n3cnc4c(N)ncnc43)[C@H](O)[C@@H]1O)C(=O)OC2 [C6-MAD],CC50,MDBK cells,> 100 µM
same,Ki,"human IMPDH; Table 2, read-out: IMPDH Ki",0.3 µM
same,EC90,BVDV [3]; [15],> 100 µM
same,virus production / viral RNA versus negative control,BVDV [3],non-active
NC(=O)c1cccc([C@@H]2O[C@H](COP(=O)(O)CP(=O)(O)OCC3OC(n4cnc5c(N)ncnc54)C(F)C3O)[C@@H](O)[C@H]2O)c1 (stereo partly drawn) [F-ara-CH2-BAD],CC50,MDBK cells; [13],> 100 µM
same,CC50,MDBK cells; [14],> 100 µM
same,Ki,"human IMPDH; Table 2, read-out: IMPDH Ki",175 µM
same,EC90,BVDV [3]; [15],> 100 µM
same,virus production / viral RNA versus negative control,BVDV [3],non-active
NC(=O)c1ncn([C@H]2O[C@@H](CO)[C@H](O)[C@@H]2O)n1 [L-Ribavirin],CC50,MDBK cells; [13],> 100 µM
same,CC50,MDBK cells; [14],> 100 µM
same,EC90,BVDV [3]; [15],> 100 µM
"COc1c(C)c2c(c(O)c1C/C=C(\C)CCC(=O)OCCN1CCOCC1)C(=O)OC2 [MMF, mycophenolate mofetil]",MPA Tmax,[6],48 min
COC(=O)CC/C(C)=C/Cc1c(O)c2c(c(C)c1OC)COC2=O [MPA-O-Me],CC50,MDBK cells; [13],> 100 µM
same,CC50,MDBK cells; [14],0.4 µM
same,Ki,"human IMPDH; Table 2, read-out: IMPDH Ki",0.5 µM
same,max log reduction Viral Load,"BVDV [3]; BVDV real time RT-PCR, after 22 hours, tested at 100 μM",3.32 (100 μM) log
same,EC90,BVDV [3]; [15],< 1 µM
NC(=O)c1ncn([C@@H]2O[C@H](CO)[C@@H](O)[C@H]2O)c1O [Mizoribine],CC50 at 24 h,[2],> 100 µM
same,CC50 at 3 days,[2]; Table 2,> 100 µM
same,Ki,"human IMPDH; human IMPDH, read-out: Ki",0.004 µM
same,EC90,"BVDV [3]; Bovine viral diarrhea virus isolates and strains, MDBK",> 100 µM
same,EC90,BVDV [3]; [11],> 100 µM
same,Selectivity Index (24 hrs/24 hrs) CC50/EC90,BVDV [3],1
same,virus production / viral RNA versus negative control,BVDV [3],non-active
"COc1c(C)c2c(c(O)c1C/C=C(\C)CCC(=O)O)C(=O)OC2 [Mycophenolic Acid (MPA), Mycophenolic Acid]",CC50 at 24 h,"[2]; bovine, MDBK cells",> 100 µM
same,CC50 at 3 days,"[2]; bovine, MDBK cells, Table 1",2 µM
same,CC50 at 3 days,"[2]; bovine, MDBK cells, Table 2",2 µM
same,CC50 at 7 days,[5],0.05 µM
same,max log reduction Viral Load,BVDV [3]; [9],>2 (40 μM) log
same,EC90,BVDV [3]; [10],1 µM
same,EC90,BVDV [3]; [11],< 1 µM
same,virus production / viral RNA versus negative control,BVDV [3],almost complete absence of viral RNA
same,CC50 at 7 days,in vitro,75.4 µM
NC(=O)c1ncn([C@@H]2O[C@H](CO)[C@@H](O)[C@H]2O)n1 [Ribavirin],CC50 at 3 days,[7],> 100 µM
same,CC50 at 3 days,[1],80 µM
same,CC50 at 24 h,[2],> 100 µM
same,CC50 at 3 days,[2]; Table 1,4 µM
same,CC50 at 3 days,[2]; Table 2,5 µM
same,CC50 at 7 days,[5],75 µM
same,"intracellular viral RNA reduction, relative effectiveness (FIG. 9)",BVDV [8],more effective than C2-MAD
same,Ki,"human IMPDH; Table 2, read-out: IMPDH Ki",0.2 µM
same,max log reduction Viral Load,BVDV [3]; [9],>2 (40 μM) log
same,EC50,BVDV [3]; [10],0.7 µM
same,EC90,BVDV [3]; [10],5 µM
same,EC90,BVDV [3]; [11],2 µM
same,Selectivity Index (24 hrs/24 hrs) CC50/EC90,BVDV [3],5
same,virus production / viral RNA versus negative control,BVDV [3],almost complete absence of viral RNA
same,CC50 at 7 days,in vitro; [12],> 100 µM
NC(=O)c1csc([C@@H]2O[C@H](CO)[C@@H](O)[C@H]2O)n1 [Tiazofurin],CC50 at 3 days,[1],> 100 µM
same,CC50 at 24 h,[2],> 100 µM
same,CC50 at 3 days,[2]; Table 1,25 µM
same,CC50 at 3 days,[2]; Table 2,25 µM
same,CC50 at 7 days,[5],73.4 µM
same,Ki,"human IMPDH; Table 2, read-out: IMPDH Ki",0.11 µM
same,max log reduction Viral Load,BVDV [3]; [9],>2 (40 μM) log
same,EC90,BVDV [3]; [10],30 µM
same,EC90,BVDV [3]; [11],7 µM
same,Selectivity Index (24 hrs/24 hrs) CC50/EC90,BVDV [3],14
same,virus production / viral RNA versus negative control,BVDV [3],almost complete absence of viral RNA
same,CC50 at 7 days,in vitro; [12],79.5 µM
Nc1nc2c(ncn2[C@@H]2O[C@H](CO)[C@@H](O)[C@H]2O)c(=O)[nH]1 [guanosine],virus production / viral RNA versus negative control,BVDV [3],non-active
NC(=O)c1csc(C2OC(COP(=O)(O)CP(=O)(O)OCC3OC(n4cnc5c(N)ncnc54)C(O)C3O)C(O)C2O)n1 (stereo not drawn) [β-CH2-TAD],CC50 at 24 h,"[2]; bovine, MDBK cells",> 100 µM
same,CC50 at 3 days,"[2]; bovine, MDBK cells, Table 1",70 µM
same,CC50 at 3 days,"[2]; bovine, MDBK cells, Table 2",70 µM
same,CC50 at 7 days,[5],47.8 µM
same,Ki,"human IMPDH; Table 2, read-out: IMPDH Ki",0.11 µM
same,max log reduction Viral Load,BVDV [3]; [9],0.94 (40 μM) log
same,EC90,BVDV [3]; [11],> 100 µM
same,Selectivity Index (24 hrs/24 hrs) CC50/EC90,BVDV [3],1
same,CC50 at 7 days,in vitro,> 100 µM
